Patent publication US20160369307A1, “METHOD OF INCREASING BIOMASS AND LIPID CONTENT IN A MICRO-ORGANISM AND A GENETICALLY MODIFIED MICRO-ORGANISM EXHIBITING ENHANCED AUTOPHAGY” (RELIANCE INDUSTRIES LIMITED, priority 2014, published 2016)
Where a SMILES comes first, the peptide text is derived from it. The star is where a group is joined. Cbz = O=C(OCc1ccccc1)*; CH2F = FC*

Tests used:
Chlorella sorokiniana [1] = test: Cell count of Chlorella sorokiniana under salinity stress with LiCl; format: cell-based; settings: for Cell Density at Day 0: Day 0, day of salinity exposure (baseline); for Cell Density at Day 4: Day 4 of salinity stress
Procedure: 5mM LiCl was added to the TAP medium in the Experimental plates, but not in the Control. […]
Thus, it can be concluded that even in environmental stress conditions like exposure to salinity, treatment of the algal cells with LiCl prevents cll death, increases the biomass and lipid content of the algal cells, and concomitantly yields an increased amount of commercially valuable products like oils which are known to be produced by the algal cells.

Chlorella sorokiniana [2] = test: Recovery of Chlorella sorokiniana cultures after UV exposure with z-vad-fmk; format: cell-based
Procedure: 1×10^6 cells/ml of Chlorella sorokiniana were grown for three days in Tris-Acetate-Phosphate (TAP) medium and then exposed to UV at 250000 μJ/cm^2 for one minute using CL-1000 UV crosslinker. Immediately after UV exposure, 25 μM Z-vad-fmk was added to the TAP medium. The cultures were kept in the dark for 24 hours. Cultures were then exposed to light of 2000 lux for 12 hours followed by 12 hours of darkness.
FIG. 1B graphically represents the optical density at 750 nm of the Control cultures versus the optical density of the cultures treated with z-vad-fmk on the 13th day after UV exposure. From these figures it is clear that z-vad-fmk induced autophagy in the Chlorella sorokiniana cells helping the cells to recover from UV exposure. […] Thus, it can be concluded that even in environmental stress conditions like exposure to UV, treatment of the algal cells with z-vad-fmk prevents cell death, increases the biomass and lipid content of the algal cells, and concomitantly yields an increased amount of commercially valuable products like oils which are known to be produced by the algal cells.

[3] = TAP + 0.6% Salinity + 5 mM LiCl
[4] = TAP + 1.2% Salinity + 5 mM LiCl

In the case of [Cl-].[Li+] [LiCl], the “Cell counts versus Control after salinity stress (FIG. 2)” value (Chlorella sorokiniana [1]; 5 mM LiCl, after 4 days of salinity stress exposure) is reported as “higher cell counts”, the “Cell Density at Day 0” value (Chlorella sorokiniana [1]; [3]) is reported as 2.6 × 10^6 cells/ml and the “Cell Density at Day 4” value (Chlorella sorokiniana [1]; [3]) is reported as 6.57 × 10^6 cells/ml. For the same compound, the “Cell Density at Day 0” value (Chlorella sorokiniana [1]; [4]) was 2.6 × 10^6 cells/ml and the “Cell Density at Day 4” value (Chlorella sorokiniana [1]; [4]) was 7.22 × 10^6 cells/ml.

COC(=O)C[C@H](NC(=O)[C@H](C)NC(=O)[C@@H](NC(=O)OCc1ccccc1)C(C)C)C(=O)CF [z-vad-fmk] (Cbz-Val-Ala-Asp(OMe)-CH2F) was tested, and the “Revival of bleached cultures after UV exposure” value (Chlorella sorokiniana [2]; 25 μM added to TAP medium immediately after UV 250000 μJ/cm^2 for one minute, 10 days) was “only z-vad-fmk treated cultures were seen to revive after 10 days” and the “Culture viability (plates, FIG. 1A) after UV exposure” value (Chlorella sorokiniana [2]; 25 μM, 13 days after UV exposure, versus Control plates) was “only the z-vad-fmk treated plates show viable cultures”.
